Results: patent US7750003B2, “Compounds-943” (AstraZeneca AB, priority 2006, dated 2010)

Molecular target: recombinant mTOR (FLAG-tagged, residues 1362-2549) (Homo sapiens, UniProt P42345)
Assay: In vitro mTOR kinase assay (Test (a), AlphaScreen)
Assay type: biochemical
Conditions: ATP 20 μM, read-out: Test (a): IC50 versus mTOR kinase
How it was run: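 AlphaScreen read-out: a phospho-T389 p70 S6K antibody on acceptor beads captures the phosphorylated biotin-peptide on donor beads, with signal loss indicating inhibition.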

Chain of recombinant mTOR (FLAG-tagged, residues 1362-2549) (P42345 1362-2549): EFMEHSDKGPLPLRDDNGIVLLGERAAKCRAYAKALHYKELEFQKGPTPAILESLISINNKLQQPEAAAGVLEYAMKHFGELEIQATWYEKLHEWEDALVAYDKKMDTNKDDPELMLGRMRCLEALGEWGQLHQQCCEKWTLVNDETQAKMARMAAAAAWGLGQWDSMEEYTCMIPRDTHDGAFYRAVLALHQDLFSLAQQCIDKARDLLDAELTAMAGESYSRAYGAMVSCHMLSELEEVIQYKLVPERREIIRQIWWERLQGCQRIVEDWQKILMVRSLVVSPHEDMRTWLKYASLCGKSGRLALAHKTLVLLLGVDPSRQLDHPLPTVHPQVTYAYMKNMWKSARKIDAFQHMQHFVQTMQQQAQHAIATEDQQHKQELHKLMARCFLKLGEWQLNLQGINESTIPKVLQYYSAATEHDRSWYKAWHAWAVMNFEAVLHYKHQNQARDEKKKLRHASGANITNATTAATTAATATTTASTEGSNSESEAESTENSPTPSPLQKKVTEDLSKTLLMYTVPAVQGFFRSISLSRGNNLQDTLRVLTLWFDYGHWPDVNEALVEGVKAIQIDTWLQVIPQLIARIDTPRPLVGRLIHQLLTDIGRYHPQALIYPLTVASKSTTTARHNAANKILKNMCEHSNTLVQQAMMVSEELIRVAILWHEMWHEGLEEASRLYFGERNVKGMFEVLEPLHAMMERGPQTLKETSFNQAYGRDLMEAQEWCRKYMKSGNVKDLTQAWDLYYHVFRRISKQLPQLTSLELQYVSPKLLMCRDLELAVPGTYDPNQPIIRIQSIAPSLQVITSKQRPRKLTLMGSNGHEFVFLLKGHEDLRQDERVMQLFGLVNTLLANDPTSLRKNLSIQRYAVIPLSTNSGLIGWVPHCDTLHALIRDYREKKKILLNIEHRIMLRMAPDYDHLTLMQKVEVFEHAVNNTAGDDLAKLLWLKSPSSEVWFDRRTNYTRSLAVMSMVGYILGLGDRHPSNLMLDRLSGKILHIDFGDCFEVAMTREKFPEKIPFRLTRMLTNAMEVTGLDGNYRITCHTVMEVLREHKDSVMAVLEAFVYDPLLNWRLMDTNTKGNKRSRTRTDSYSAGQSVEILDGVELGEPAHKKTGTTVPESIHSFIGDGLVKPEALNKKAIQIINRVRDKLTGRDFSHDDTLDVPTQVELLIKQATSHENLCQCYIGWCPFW

| SMILES | IC50 [nM] |
| --- | --- |
| C[C@H]1COCCN1c1cc(CS(=O)(=O)c2ccccc2)nc(-c2ccc(NC(=O)N(C)C)cc2)n1 [Example 15, 3-[4-[4-(Benzenesulfonylmethyl)-6-[(3S)-3-methylmorpholin-4-yl]pyrimidin-2-yl]phenyl]-1,1-dimethyl-urea] | 1000 |
| CNC(=O)Nc1ccc(-c2nc(CS(C)(=O)=O)cc(N3CCOC[C@@H]3C)n2)cc1F [Example 2e, 3-[2-fluoro-4-[4-[(3S)-3-methylmorpholin-4-yl]-6-(methylsulfonylmethyl)pyrimidin-2-yl]phenyl]-1-methyl-urea] | 38 |
| C[C@H]1COCCN1c1cc(CS(C)(=O)=O)nc(-n2ccc(NC(=O)Nc3ccccc3)n2)n1 [Example 25, 1-[1-[4-[(3S)-3-Methylmorpholin-4-yl]-6-(methylsulfonylmethyl)pyrimidin-2-yl]pyrazol-3-yl]-3-phenyl-urea] | 1900 |
| C[C@H]1COCCN1c1cc(CO)nc(-c2ccc(NC(=O)Nc3ccccc3)cc2)n1 [Example 6, 1-[4-[4-(Hydroxymethyl)-6-[(3S)-3-methylmorpholin-4-yl]pyrimidin-2-yl]phenyl]-3-phenyl-urea] | 560 |
| COc1cc(-c2nc(CS(C)(=O)=O)cc(N3CCOC[C@@H]3C)n2)ccc1NC(=O)Nc1ccc(F)cc1 [Example 1h, 3-(4-fluorophenyl)-1-[2-methoxy-4-[4-[(3S)-3-methylmorpholin-4-yl]-6-(methylsulfonylmethyl)pyrimidin-2-yl]phenyl]urea] | 1200 |
| C[C@H]1COCCN1c1cc(CS(C)(=O)=O)nc(-c2ccc(NC(=O)Nc3ccc(F)cc3)c(F)c2)n1 [Example 1f, 1-[2-fluoro-4-[4-[(3S)-3-methylmorpholin-4-yl]-6-(methylsulfonylmethyl)pyrimidin-2-yl]phenyl]-3-(4-fluorophenyl)urea] | 360 |
| C[C@H]1COCCN1C(=O)c1cc(N2CCOC[C@@H]2C)nc(-c2ccc(NC(=O)NC3CC3)cc2)n1 [Example 36, 3-Cyclopropyl-1-[4-[4-[(3S)-3-methylmorpholine-4-carbonyl]-6-[(3S)-3-methylmorpholin-4-yl]pyrimidin-2-yl]phenyl]urea] | 62 |
| CCNC(=O)Nc1ccc(-c2nc(CS(C)(=O)=O)cc(N3CCOC[C@@H]3C)n2)cc1F [Example 4, 1-Ethyl-3-[2-fluoro-4-[4-[(3S)-3-methylmorpholin-4-yl]-6-(methylsulfonylmethyl)pyrimidin-2-yl]phenyl]urea] | 31 |
| C[C@H]1COCCN1c1cc(CS(C)(=O)=O)nc(-c2ccc(NC(=O)NCCc3ccccn3)cc2)n1 [Example 24, 1-[4-[4-[(3S)-3-Methylmorpholin-4-yl]-6-(methylsulfonylmethyl)pyrimidin-2-yl]phenyl]-3-(2-pyridin-2-ylethyl)urea] | 340 |
| COc1ccc(NC(=O)Nc2ccc(-c3nc(CS(C)(=O)=O)cc(N4CCOC[C@@H]4C)n3)cc2)cc1 [Example 1a, 1-(4-methoxyphenyl)-3-[4-[4-[(3S)-3-methylmorpholin-4-yl]-6-(methylsulfonylmethyl)pyrimidin-2-yl]phenyl]urea] | 62 |
| CNC(=O)Nc1ncc(-c2nc(N3CCOC[C@@H]3C)cc(C(C)(C)S(C)(=O)=O)n2)s1 [Example 47, 3-Methyl-1-[5-[4-[(3S)-3-methylmorpholin-4-yl]-6-(2-methylsulfonylpropan-2-yl)pyrimidin-2-yl]-1,3-thiazol-2-yl]urea] | 260 |
| CNC(=O)Nc1ccc(-c2nc(CO)cc(N3CCOC[C@@H]3C)n2)cc1 [Example 18, 1-[4-[4-(Hydroxymethyl)-6-[(3S)-3-methylmorpholin-4-yl]pyrimidin-2-yl]phenyl]-3-methyl-urea] | 120 |
| C[C@H]1COCCN1c1cc(C(C)(C)O)nc(-c2ccc(NC(=O)NC3CC3)cc2)n1 [Example 37, 3-Cyclopropyl-1-[4-[4-(2-hydroxypropan-2-yl)-6-[(3S)-3-methylmorpholin-4-yl]pyrimidin-2-yl]phenyl]urea] | 51 |
| CS(=O)(=O)Cc1cc(N2CCOCC2)nc(-c2ccc(NC(=O)NC3CCCCC3)cc2)n1 [Example 7l, 3-cyclohexyl-1-[4-[4-(methylsulfonylmethyl)-6-morpholin-4-yl-pyrimidin-2-yl]phenyl]urea] | 7000 |
| CC(C)NC(=O)Nc1ccc(-c2nc(CS(C)(=O)=O)cc(N3CCOC[C@@H]3C)n2)cc1F [Example 4b, 3-[2-fluoro-4-[4-[(3S)-3-methylmorpholin-4-yl]-6-(methylsulfonylmethyl)pyrimidin-2-yl]phenyl]-1-propan-2-yl-urea] | 140 |
| CN(C(=O)Nc1ccc(-c2nc(CS(C)(=O)=O)cc(N3CCOCC3)n2)cc1)C1CC1 [Example 8e, 1-cyclopropyl-1-methyl-3-[4-[4-(methylsulfonylmethyl)-6-morpholin-4-yl-pyrimidin-2-yl]phenyl]urea] | 280 |

Continued, values first:

| IC50 [nM] | SMILES |
| --- | --- |
| 7.1 | C[C@H]1COCCN1c1cc(CS(=O)(=O)CC(N)=O)nc(-c2ccc(NC(=O)NC3CC3)cc2)n1 [Example 43h, 2-[[2-[4-(cyclopropylcarbamoylamino)phenyl]-6-[(3S)-3-methylmorpholin-4-yl]pyrimidin-4-yl]methylsulfonyl]acetamide] |
| 51 | C[C@H]1COCCN1c1cc(C(C)(C)S(C)(=O)=O)nc(-c2ccc(NC(=O)NCCO)cc2)n1 [Example 24bj, 3-(2-hydroxyethyl)-1-[4-[4-[(3S)-3-methylmorpholin-4-yl]-6-(2-methylsulfonylpropan-2-yl)pyrimidin-2-yl]phenyl]urea] |
| 1200 | CNC(=O)C1CCN(C(=O)Nc2ccc(-c3nc(CS(C)(=O)=O)cc(N4CCOCC4)n3)cc2)CC1 [Example 45y, N′-methyl-N-[4-[4-(methylsulfonylmethyl)-6-morpholin-4-yl-pyrimidin-2-yl]phenyl]piperidine-1,4-dicarboxamide] |
| 110 | C[C@H]1COCCN1c1cc(CS(=O)(=O)c2ccccc2C(F)(F)F)nc(-c2ccc(NC(=O)NC3CC3)cc2)n1 [Example 43f, 3-cyclopropyl-1-[4-[4-[(3S)-3-methylmorpholin-4-yl]-6-[[2-(trifluoromethyl)phenyl]sulfonylmethyl]pyrimidin-2-yl]phenyl]urea] |
| 1.4 | CNC(=O)Nc1ccc(-c2nc(CS(=O)(=O)c3ncc[nH]3)cc(N3CCOC[C@@H]3C)n2)cc1 [Example 33c, 1-[4-[4-(1H-imidazol-2-ylsulfonylmethyl)-6-[(3S)-3-methylmorpholin-4-yl]pyrimidin-2-yl]phenyl]-3-methyl-urea] |
| 840 | CCNC(=O)Nc1ccn(-c2nc(CS(C)(=O)=O)cc(N3CCOC[C@@H]3C)n2)n1 [Example 24l, 1-ethyl-3-[1-[4-[(3S)-3-methylmorpholin-4-yl]-6-(methylsulfonylmethyl)pyrimidin-2-yl]pyrazol-3-yl]urea] |
| 1200 | C[C@H]1COCCN1c1cc(C(C)(C)S(C)(=O)=O)nc(-c2cnc(NC(=O)NC3CC3)s2)n1 [Example 47a, 3-cyclopropyl-1-[5-[4-[(3S)-3-methylmorpholin-4-yl]-6-(2-methylsulfonylpropan-2-yl)pyrimidin-2-yl]-1,3-thiazol-2-yl]urea] |
| 150 | C[C@H]1COCCN1c1cc(CN(C)CCO)nc(-c2ccc(NC(=O)NC3CC3)cc2)n1 [Example 49a, 3-cyclopropyl-1-[4-[4-[(2-hydroxyethyl-methyl-amino)methyl]-6-[(3S)-3-methylmorpholin-4-yl]pyrimidin-2-yl]phenyl]urea] |
| 650 | C[C@H]1COCCN1c1cc(CS(C)(=O)=O)nc(-n2ccc(NC(=O)NC3CC3)n2)n1 [Example 24m, 3-cyclopropyl-1-[1-[4-[(3S)-3-methylmorpholin-4-yl]-6-(methylsulfonylmethyl)pyrimidin-2-yl]pyrazol-3-yl]urea] |
| 14 | C[C@H]1COCCN1c1cc(CN2CC(O)C2)nc(-c2ccc(NC(=O)NC3CC3)cc2)n1 [Example 49k, 3-cyclopropyl-1-[4-[4-[(3-hydroxyazetidin-1-yl)methyl]-6-[(3S)-3-methylmorpholin-4-yl]pyrimidin-2-yl]phenyl]urea] |
| 820 | C[C@H]1COCCN1c1cc(CS(C)(=O)=O)nc(-c2ccc(NC(=O)NC(C)(C)C)cc2)n1 [Example 35f, 1-[4-[4-[(3S)-3-methylmorpholin-4-yl]-6-(methylsulfonylmethyl)pyrimidin-2-yl]phenyl]-3-tert-butyl-urea] |
| 74 | CCNC(=O)Nc1ccc(-c2nc(CS(=O)(=O)C(C)C)cc(N3CCOCC3)n2)cc1 [Example 20l, 1-ethyl-3-[4-[4-morpholin-4-yl-6-(propan-2-ylsulfonylmethyl)pyrimidin-2-yl]phenyl]urea] |
| 360 | CC(C)(c1cc(N2CCOCC2)nc(-c2ccc(NC(=O)NC3CC3)cc2)n1)S(C)(=O)=O [Example 21b, 3-cyclopropyl-1-[4-[4-(2-methylsulfonylpropan-2-yl)-6-morpholin-4-yl-pyrimidin-2-yl]phenyl]urea] |
| 560 | Cc1cnc(CNC(=O)Nc2ccc(-c3nc(CS(C)(=O)=O)cc(N4CCOC[C@@H]4C)n3)cc2)cn1 [Example 24c, 3-[4-[4-[(3S)-3-methylmorpholin-4-yl]-6-(methylsulfonylmethyl)pyrimidin-2-yl]phenyl]-1-[(5-methylpyrazin-2-yl)methyl]urea] |
| 240 | C[C@H]1COCCN1c1cc(C(C)(C)S(C)(=O)=O)nc(-c2cc(F)c(NC(=O)NCc3cnn(C)c3)c(F)c2)n1 [Example 24ae, 1-[2,6-difluoro-4-[4-[(3S)-3-methylmorpholin-4-yl]-6-(2-methylsulfonylpropan-2-yl)pyrimidin-2-yl]phenyl]-3-[(1-methylpyrazol-4-yl)methyl]urea] |
| 4400 | C[C@H]1COCCN1c1cc(CS(C)(=O)=O)nc(-c2ccc(NC(=O)NCc3ccccn3)cc2)n1 [Example 24d, 1-[4-[4-[(3S)-3-methylmorpholin-4-yl]-6-(methylsulfonylmethyl)pyrimidin-2-yl]phenyl]-3-(pyridin-2-ylmethyl)urea] |
| 39 | C[C@H]1COCCN1c1cc(CS(=O)(=O)c2ccccc2)nc(-c2ccc(NC(=O)NC3CC3)cc2)n1 [Example 20g, 1-[4-[4-(benzenesulfonylmethyl)-6-[(3S)-3-methylmorpholin-4-yl]pyrimidin-2-yl]phenyl]-3-cyclopropyl-urea] |
